Reference: patent US20230107642A1 (Erasca, Inc., priority 2020, published 2023)

Molecular target: T1, K-Ras G12C (Homo sapiens, UniProt P01116, G12C)
T1 construct: This protein contained 188 amino acids in total, including an N-terminal 6-Histidine tag; made in house; host or cells: E. coli BL21
Assay: CAF assay (% CAF; method in Example 7, not in this part)
Type: binding
Conditions: 10 uM compound, 1 h incubation

Point of comparison: `C=CC(=O)N1CCN(c2nc(=O)n3c4c(c(-c5ccc(F)cc5F)c(C(F)(F)F)cc24)SC[C@@H]3COC)CC1` (atropisomer, axis not shown) [Example 579, (3S,10S)-7-(4-acryloylpiperazin-1-yl)-10-(2,4-difluorophenyl)-3-(methoxymethyl)-9-(trifluoromethyl)-2,3-dihydro-5H-[1,4]thiazino[2,3,4-ij]quinazolin-5-one], “% CAF @ 10 uM, 1h” value 96.9%. Against it:
- C=CC(=O)N1CCN(c2nc(=O)n3c4c(c(-c5ccc(F)cc5F)c(C(F)(F)F)cc24)SCCC3)[C@@H](C)C1 [Example 450, 8-((S)-4-acryloyl-2-methylpiperazin-1-yl)-11-(2,4-difluorophenyl)-10-(trifluoromethyl)-3,4-dihydro-2H,6H-[1,4]thiazepino[2,3,4-ij]quinazolin-6-one] — lower, 61%
- C=CC(=O)N1C[C@H](C)N(c2nc(=O)n3c4c(c(-c5ccc(F)cc5)c(Cl)cc24)SC[C@@H]3CN2CCC3(CC2)COC3)C[C@H]1C [Example 473, (S)-3-(2-oxa-7-azaspiro[3.5]nonan-7-ylmethyl)-7-((2S,5R)-4-acryloyl-2,5-dimethylpiperazin-1-yl)-9-chloro-10-(4-fluorophenyl)-2H-[1,4]thiazino[2,3,4-ij]quinazolin-5(3H)-one] — lower, 65.8%
- C=CC(=O)N1[C@H](C)CN(c2nc(=O)n3c4c(c(-c5cc(Cl)c(F)cc5F)c(C(F)(F)F)cc24)SC[C@@H](OC)C3)C[C@@H]1C [Example 539, (3S)-8-((3S,5R)-4-acryloyl-3,5-dimethylpiperazin-1-yl)-11-(5-chloro-2,4-difluorophenyl)-3-methoxy-10-(trifluoromethyl)-3,4-dihydro-2H,6H-[1,4]thiazepino[2,3,4-ij]quinazolin-6-one] — lower, 96%
- C=CC(=O)N1CCN(c2nc(=O)n3c4c(c(-c5cc(F)c(F)cc5F)c(Cl)cc24)SC[C@@H]3CN2CCC3(CC2)COC3)[C@@H](C)C1 [Example 469, (3S)-3-(2-oxa-7-azaspiro[3.5]nonan-7-ylmethyl)-7-((S)-4-acryloyl-2-methylpiperazin-1-yl)-9-chloro-10-(2,4,5-trifluorophenyl)-2H-[1,4]thiazino[2,3,4-ij]quinazolin-5(3H)-one] — lower, 57.8%
- C=CC(=O)N1CCN(c2nc(=O)n3c4c(c(-c5cc(Cl)c(F)cc5F)c(Cl)cc24)SC[C@@H]3CN2CCN(C3CC3)CC2)[C@@H](C)C1 [Example 458, (3S)-7-((S)-4-acryloyl-2-methylpiperazin-1-yl)-9-chloro-10-(5-chloro-2,4-difluorophenyl)-3-((4-cyclopropylpiperazin-1-yl)methyl)-2H-[1,4]thiazino[2,3,4-ij]quinazolin-5(3H)-one] — lower, 55.6%
- C=CC(=O)N1CCN(c2nc(=O)n3c4c(c(-c5cc(Cl)c(F)cc5F)c(Cl)cc24)SC[C@@H]3CC2CCN(C3COC3)CC2)[C@@H](C)C1 [Example 426, (3S)-7-((S)-4-acryloyl-2-methylpiperazin-1-yl)-9-chloro-10-(5-chloro-2,4-difluorophenyl)-3-((1-(oxetan-3-yl)piperidin-4-yl)methyl)-2H-[1,4]thiazino[2,3,4-ij]quinazolin-5(3H)-one] — lower, 82.8%
- C=CC(=O)N1C[C@H](C)N(c2nc(=O)n3c4c(c(-c5ccc(F)cc5F)c(C(F)(F)F)cc24)SC[C@@H]3CN2CCN(CC#N)CC2)C[C@H]1C [Example 561, 2-(4-(((3S)-7-((2S,5R)-4-acryloyl-2,5-dimethylpiperazin-1-yl)-10-(2,4-difluorophenyl)-5-oxo-9-(trifluoromethyl)-3,5-dihydro-2H-[1,4]thiazino[2,3,4-ij]quinazolin-3-yl)methyl)piperazin-1-yl)acetonitrile] — lower, 10.4%
- C=CC(=O)N1CCN(c2nc(=O)n3c4c(c(-c5ccc(F)cc5F)c(Cl)cc24)SC[C@@H](OC)C3)[C@@H](C)C1 [Example 487, (3S)-8-((S)-4-acryloyl-2-methylpiperazin-1-yl)-10-chloro-11-(2,4-difluorophenyl)-3-methoxy-3,4-dihydro-2H,6H-[1,4]thiazepino[2,3,4-ij]quinazolin-6-one] — lower, 96%
- C=CC(=O)N1C[C@H](C)N(c2nc(=O)n3c4c(c(-c5ccc(F)cc5)c(C(F)(F)F)cc24)SC[C@@H]3CN2CCN(CC(F)F)CC2)C[C@H]1C [Example 574, (S)-7-((2S,5R)-4-acryloyl-2,5-dimethylpiperazin-1-yl)-3-((4-(2,2-difluoroethyl)piperazin-1-yl)methyl)-10-(4-fluorophenyl)-9-(trifluoromethyl)-2H-[1,4]thiazino[2,3,4-ij]quinazolin-5(3H)-one] — lower, 83.2%
- C=CC(=O)N1CCN(c2nc(=O)n3c4c(c(-c5ccc(F)cc5F)c(Cl)cc24)SC[C@@H]3CC2CCOCC2)[C@@H](C)C1 [Example 438, (3S)-7-((S)-4-acryloyl-2-methylpiperazin-1-yl)-9-chloro-10-(2,4-difluorophenyl)-3-((tetrahydro-2H-pyran-4-yl)methyl)-2H-[1,4]thiazino[2,3,4-ij]quinazolin-5(3H)-one] — lower, 92.8%
- C=CC(=O)N1CCN(c2nc(=O)n3c4c(c(-c5ccc(F)cc5F)c(C(F)(F)F)cc24)SC[C@@H](N(C)CC(F)(F)F)C3)[C@@H](C)C1 [Example 454, (3S)-8-((S)-4-acryloyl-2-methylpiperazin-1-yl)-11-(2,4-difluorophenyl)-3-(methyl(2,2,2-trifluoroethyl)amino)-10-(trifluoromethyl)-3,4-dihydro-2H,6H-[1,4]thiazepino[2,3,4-ij]quinazolin-6-one] — lower, 61%
- C=CC(=O)N1[C@H](C)CN(c2nc(=O)n3c4c(c(-c5cc(Cl)c(F)cc5F)c(C(F)(F)F)cc24)SC[C@@H]3CN2CCC3(CC2)COC3)C[C@@H]1C (atropisomer, axis not shown) [Example 566, (3S,10R)-3-((2-oxa-7-azaspiro[3.5]nonan-7-yl)methyl)-7-((3S,5R)-4-acryloyl-3,5-dimethylpiperazin-1-yl)-10-(5-chloro-2,4-difluorophenyl)-9-(trifluoromethyl)-2,3-dihydro-5H-[1,4]thiazino[2,3,4-ij]quinazolin-5-one] — lower, 77.7%

Same assay, conditions: 10 uM, 1 h; Table 3

Point of comparison: `C=CC(=O)N1C[C@H](C)N(c2nc(=O)n3c4c(c(-c5cccc6ccccc56)c(Cl)cc24)SCC3)C[C@H]1C` (atropisomer, axis not shown) [Example 183, 7-((2S,5R)-4-acryloyl-2,5-dimethylpiperazin-1-yl)-9-chloro-10-(naphthalen-1-yl)-2,3-dihydro-5H-[1,4]thiazino[2,3,4-ij]quinazolin-5-one], “% CAF @ 10 uM, 1h” value 45.3%. Against it:
- C=C(F)C(=O)N1CCN(c2nc(=O)n3c4c(c(-c5ccc(F)cc5F)c(Cl)cc24)SCC3)C[C@H]1C#N [Example 125, (2S)-4-(9-chloro-10-(2,4-difluorophenyl)-5-oxo-2,3-dihydro-5H-[1,4]thiazino[2,3,4-ij]quinazolin-7-yl)-1-(2-fluoroacryloyl) piperazine-2-carbonitrile] — higher, 94.5%
